Experimental data from ChEMBL document CHEMBL1268894, “Synthesis and biological evaluation of novel hygromycin A antibacterial agents” (Bioorg Med Chem Lett, 2010).
In brackets after ≈: the same amount, converted by molar mass.

Key:
Staphylococcus aureus [1] = test: Antimicrobial activity against Staphylococcus aureus 1095; type: functional
Streptococcus pneumoniae [2] = test: Antimicrobial activity against Streptococcus pneumoniae 1095; type: functional
Streptococcus pneumoniae [3] = test: Antimicrobial activity against Streptococcus pneumoniae 1046; type: functional
Streptococcus pyogenes [4] = test: Antimicrobial activity against Streptococcus pyogenes 1079; type: functional
Staphylococcus aureus [5] = test: Antimicrobial activity against Staphylococcus aureus 1146; type: functional
Streptococcus pyogenes [6] = test: Antimicrobial activity against Streptococcus pyogenes 2035; type: functional
[7] = Oral bioavailability in rat; type: ADME, organism-based; details: in vivo
[8] = Permeability across apical to basolateral side in human Caco-2 cells; type: ADME, cell-based; details: read-out: permeability
[9] = Permeability across basolateral to apical side in human Caco-2 cells; type: ADME, cell-based; details: read-out: permeability

MIC (Staphylococcus aureus [1]) [µg/mL]	MIC (Streptococcus pneumoniae [2]) [µg/mL]	MIC (Streptococcus pneumoniae [3]) [µg/mL]	MIC (Streptococcus pyogenes [4]) [µg/mL]	MIC (Staphylococcus aureus [5]) [µg/mL]	MIC (Streptococcus pyogenes [6]) [µg/mL]	bioavailability [7] [%]	Papp A→B [8] [×10⁻⁶ cm/s]	Papp B→A [9] [×10⁻⁶ cm/s]	Compound
8 (≈ 16.8 µM)	8 (≈ 16.8 µM)	2 (≈ 4.21 µM)	2 (≈ 4.21 µM)	8 (≈ 16.8 µM)	1 (≈ 2.1 µM)	–	–	–	CCO[C@@H]1[C@@H](O)[C@H]2OCO[C@H]2[C@H](O)[C@@H]1NC(=O)/C(C)=C/c1cc(F)c(OCCCF)cc1F
16 (≈ 29.8 µM)	8 (≈ 14.9 µM)	4 (≈ 7.44 µM)	2 (≈ 3.72 µM)	16 (≈ 29.8 µM)	16 (≈ 29.8 µM)	–	–	–	C/C(=C\c1cc(F)c(OCCCF)cc1F)C(=O)N[C@@H]1[C@H](O)[C@@H](O)[C@H]2OCO[C@H]2[C@@H]1OCc1ccccc1
4 (≈ 8.94 µM)	0.4 (≈ 0.894 µM)	0.5 (≈ 1.12 µM)	< 0.2	4 (≈ 8.94 µM)	2 (≈ 4.47 µM)	20	0.9	5.9	C/C(=C\c1cc(F)c(OCCCF)cc1F)C(=O)N[C@@H]1[C@H](O)[C@@H](O)[C@H]2OCO[C@H]2[C@@H]1O
4 (≈ 8.17 µM)	2 (≈ 4.09 µM)	1 (≈ 2.04 µM)	1 (≈ 2.04 µM)	8 (≈ 16.3 µM)	4 (≈ 8.17 µM)	–	–	–	CCCO[C@@H]1[C@H](NC(=O)/C(C)=C/c2cc(F)c(OCCCF)cc2F)[C@H](O)[C@@H](O)[C@H]2OCO[C@H]21
2 (≈ 3.94 µM)	0.25 (≈ 0.493 µM)	0.25 (≈ 0.493 µM)	0.125 (≈ 0.246 µM)	1 (≈ 1.97 µM)	0.5 (≈ 0.985 µM)	–	–	–	C/C(=C\c1cc(F)c(OCCCF)cc1F)C(=O)N[C@@H]1[C@H](O)[C@@H](O)[C@H]2OCO[C@H]2[C@@H]1OCCCF
8 (≈ 16.8 µM)	4 (≈ 8.41 µM)	1 (≈ 2.1 µM)	1 (≈ 2.1 µM)	8 (≈ 16.8 µM)	4 (≈ 8.41 µM)	–	–	–	CCO[C@@H]1[C@H](NC(=O)/C(C)=C/c2cc(F)c(OCCCF)cc2F)[C@H](O)[C@@H](O)[C@H]2OCO[C@H]21
6.25 (≈ 13.5 µM)	1.56 (≈ 3.38 µM)	0.78 (≈ 1.69 µM)	1.56 (≈ 3.38 µM)	3.13 (≈ 6.78 µM)	1.56 (≈ 3.38 µM)	–	–	–	CO[C@@H]1[C@H](NC(=O)/C(C)=C/c2cc(F)c(OCCCF)cc2F)[C@H](O)[C@@H](O)[C@H]2OCO[C@H]21
2 (≈ 4.11 µM)	1 (≈ 2.06 µM)	0.5 (≈ 1.03 µM)	0.25 (≈ 0.514 µM)	1 (≈ 2.06 µM)	0.5 (≈ 1.03 µM)	–	–	–	C/C(=C\c1cc(F)c(OCCCF)cc1F)C(=O)N[C@@H]1[C@H](O)[C@@H](O)[C@H]2OCO[C@H]2[C@@H]1OCC#N
16 (≈ 31.5 µM)	8 (≈ 15.8 µM)	8 (≈ 15.8 µM)	2 (≈ 3.94 µM)	8 (≈ 15.8 µM)	8 (≈ 15.8 µM)	–	–	–	C/C(=C\c1cc(F)c(OCCCF)cc1F)C(=O)N[C@H]1[C@@H](O)[C@@H]2OCO[C@@H]2[C@H](O)[C@H]1OCCCF
50 (≈ 97.8 µM)	12.5 (≈ 24.4 µM)	12.5 (≈ 24.4 µM)	6.25 (≈ 12.2 µM)	25 (≈ 48.9 µM)	6.25 (≈ 12.2 µM)	–	–	–	CC(=O)[C@H]1O[C@@H](Oc2ccc(/C=C(\C)C(=O)N[C@@H]3[C@H](O)[C@@H](O)[C@H]4OCO[C@H]4[C@@H]3O)cc2O)[C@@H](O)[C@@H]1O [HYGROMYCIN A]
16 (≈ 37.1 µM)	8 (≈ 18.5 µM)	–	8 (≈ 18.5 µM)	8 (≈ 18.5 µM)	4 (≈ 9.27 µM)	–	–	–	C/C(=C\c1cc(F)c(OCCCF)cc1F)C(=O)N[C@H]1C[C@@H]2OCO[C@@H]2[C@H](O)[C@H]1O
64 (≈ 148 µM)	8 (≈ 18.5 µM)	4 (≈ 9.27 µM)	8 (≈ 18.5 µM)	32 (≈ 74.2 µM)	16 (≈ 37.1 µM)	–	–	–	C/C(=C\c1cc(F)c(OCCCF)cc1F)C(=O)N[C@H]1[C@@H](O)[C@@H]2OCO[C@@H]2C[C@H]1O
> 64	64 (≈ 131 µM)	64 (≈ 131 µM)	32 (≈ 65.4 µM)	> 64	64 (≈ 131 µM)	–	–	–	CCCO[C@@H]1[C@@H](O)[C@H]2OCO[C@H]2[C@H](O)[C@@H]1NC(=O)/C(C)=C/c1cc(F)c(OCCCF)cc1F
4 (≈ 7.53 µM)	1 (≈ 1.88 µM)	0.5 (≈ 0.941 µM)	0.25 (≈ 0.47 µM)	2 (≈ 3.76 µM)	1 (≈ 1.88 µM)	–	–	–	C/C(=C\c1cc(F)c(OCCCF)cc1F)C(=O)N[C@@H]1[C@H](O)[C@@H](O)[C@H]2OCO[C@H]2[C@@H]1OCC1CCOC1 (stereo partly drawn)
1 (≈ 1.78 µM)	< 0.0625	< 0.0625	< 0.0625	1 (≈ 1.78 µM)	0.25 (≈ 0.444 µM)	–	2.5	22	C/C(=C\c1cc(F)c(OCCCF)cc1F)C(=O)N[C@@H]1[C@H](O)[C@@H](O)[C@H]2OCO[C@H]2[C@@H]1OCc1ccccc1C#N
50 (≈ 123 µM)	1.56 (≈ 3.83 µM)	1.56 (≈ 3.83 µM)	0.8 (≈ 1.96 µM)	50 (≈ 123 µM)	1.56 (≈ 3.83 µM)	–	–	–	C=CCOc1ccc(/C=C(\C)C(=O)N[C@@H]2[C@H](O)[C@@H](O)[C@H]3OCO[C@H]3[C@@H]2O)cc1O
4 (≈ 7.98 µM)	1 (≈ 1.99 µM)	0.5 (≈ 0.997 µM)	0.5 (≈ 0.997 µM)	4 (≈ 7.98 µM)	1 (≈ 1.99 µM)	–	–	–	C/C(=C\c1cc(F)c(OCCCF)cc1F)C(=O)N[C@@H]1[C@H](O)[C@@H](O)[C@H]2OCO[C@H]2[C@@H]1OCC1CC1
16 (≈ 30.8 µM)	4 (≈ 7.7 µM)	4 (≈ 7.7 µM)	2 (≈ 3.85 µM)	16 (≈ 30.8 µM)	2 (≈ 3.85 µM)	90	–	–	COCCCO[C@@H]1[C@H](NC(=O)/C(C)=C/c2cc(F)c(OCCCF)cc2F)[C@H](O)[C@@H](O)[C@H]2OCO[C@H]21
> 100	25 (≈ 54.2 µM)	25 (≈ 54.2 µM)	50 (≈ 108 µM)	100 (≈ 217 µM)	100 (≈ 217 µM)	–	–	–	CO[C@@H]1[C@@H](O)[C@@H](NC(=O)/C(C)=C/c2cc(F)c(OCCCF)cc2F)[C@@H](O)[C@@H]2OCO[C@H]12
> 64	> 64	64 (≈ 128 µM)	32 (≈ 63.8 µM)	> 64	> 64	–	–	–	C/C(=C\c1cc(F)c(OCCCF)cc1F)C(=O)N[C@H]1[C@@H](O)[C@@H]2OCO[C@@H]2[C@H](O)[C@H]1OCC1CC1
> 64	32 (≈ 59.5 µM)	32 (≈ 59.5 µM)	32 (≈ 59.5 µM)	64 (≈ 119 µM)	64 (≈ 119 µM)	–	10	14	C/C(=C\c1cc(F)c(OCCCF)cc1F)C(=O)N[C@H]1[C@@H](O)[C@@H]2OCO[C@@H]2[C@H](O)[C@H]1OCc1ccccc1
